Experimental data reported in PMC10547238, “Discovery of Potent Tetrazole Free Fatty Acid Receptor 2 Antagonists” (Journal of Medicinal Chemistry, 2023).
Entries after “also recorded” stand apart in the source; their conditions may differ.

Experiments:
human neutrophils [1] = test: Human neutrophil respiratory burst (luminol-amplified chemiluminescence); assay type: cell-based; conditions: for IC50: Neutrophil, read-out: pIC50 on C3-induced respiratory burst (converted)
Protocol: (§1) Human peripheral blood neutrophils were isolated from healthy volunteer buffy coats. Initially, the majority of red blood cells were sedimented using 2% w/v dextran sulfate in a 0.9% NaCl solution for 15 min. Next, the upper phase was centrifuged for 10 min at 200g and the supernatant was discarded. The pellet was resuspended in 0.9% NaCl solution, and neutrophils were separated from here using Lymphoprep (STEMCELL Technologies #07851) and density-gradient centrifugation (400g for 30 min). Then, the remaining red blood cells were subjected to hypotonic lysis by addition of 10 mL of sterile water followed by addition of 10 mL of 1.8% NaCl solution. Cell count and viability were determined using trypan blue and a Countess cell counter. Isolated neutrophils were characterized by May–Grunwald–Giemsa staining and immediately used for migration assays or assessment of respiratory burst.
Human neutrophil respiratory burst was assessed via luminol-amplified chemiluminescence. Freshly isolated human neutrophils were seeded in a concentration of 100,000 cells/well in a flat bottom, white 96-well plate (PerkinElmer cat #6005680). Cells were pre-incubated for 30 min with test compounds or vehicles (DMSO) in HBSS in a humidified atmosphere at 37 °C and 5% CO2. Next, luminol (Merck cat #521-31-3) was added to a final concentration of 10 μM. Lastly, the vehicle or the FFA2 agonist, sodium propionate, was added to a final concentration of 1 mM. Immediately thereafter, chemiluminescence was evaluated with an LUMIstar Omega microplate reader (PerkinElmer) where light emission was recorded for 1 s/well every 60 s for 1 h at 37 °C. Experiments were performed in triplicate and analyzed using GraphPad Prism (version 9). Fold response was calculated as the relative luminescence of samples compared to the vehicle control.

[2] = Pharmacokinetic study in mice; assay type: in vivo; conditions: male, BALB/cAnC, mouse, plasma
Protocol: The study was performed by Bienta (www.bienta.net). Study design, animal selection, handling, and treatment were all in accordance with the Enamine PK study protocols and Institutional Animal Care and Use Guidelines. Animal treatment and plasma sample preparation were conducted by the Animal Laboratory personnel at Enamine/Bienta. Male BALB/cAnC mice (10–11 weeks old, body weight: 16.0–21.7 g and average body weight across all groups: 19.1 g, SD = 1.2 g) were used in this study. The animals were randomly assigned to the treatment groups before the pharmacokinetic study; all animals were fasted for 4 h before dosing. Intravenous (IV) and peroral (PO) routes of administration were done according to the following; eight time points for each route (3, 7, 15, 30, 60, 120, 240, and 480 min) for the IV route and (5, 10, 15, 30, 60, 120, 240, and 480 min) for the PO route were set for this pharmacokinetic study. Each of the time point treatment group included three animals. There was also one control animal. Compound 16l in the vehicle (DMSO–Cremophor EL–water w/5% mannitol, 1:1:8) was dosed at 10 mg/kg po and 5 mg/kg iv. Dosing volumes of compounds or vehicle were 5 mL/kg. Mice were injected iv with 2,2,2-tribromoethanol at a dose of 150 mg/kg prior to drawing the blood. Blood collection was performed from the orbital sinus in microtainers containing K3EDTA. Animals were sacrificed by cervical dislocation after the blood sample collection. Blood samples were centrifuged for 10 min at 3000 rpm. Before analysis, plasma samples (40 μL) were added 200 μL of a solution with transilast as the internal standard (200 ng/mL in water–methanol mixture 1:9, v/v). After mixing by pipetting and centrifuging for 4 min at 6000 rpm, 0.5 μL of each supernatant was analyzed by HPLC-MS/MS on an API 3000 PE instrument.

human neutrophils [3] = test: Human neutrophil migration (Transwell); assay type: cell-based
Protocol: as §1, with “Isolated neutrophils were characterized by May–Grunwald–Giemsa staining and immediately used for migration assays or assessment of respiratory burst.” left out
Freshly isolated human peripheral neutrophils were used in migration assays using the Boyden style Corning HTS Transwell 96 well system with 3 μm pores (Corning #3385). […] Finally, the number of cells that had migrated to the bottom chamber was assessed using the ATPLite Luminescence assay system (PerkinElmer #6016943) according to the manufacturer’s instructions. Luminescence was measured on an LUMIstar Omega microplate reader (PerkinElmer). Experiments were performed in triplicate and analyzed using GraphPad Prism (version 9). Fold response was calculated as the relative migration of samples compared to the vehicle control.

| IC50 (human neutrophils [1]; propionate (C3) 1 mM) | AUC(0-inf) ([2]; iv admin 5 mg/kg) | Vd ([2]; iv admin 5 mg/kg) | half-life ([2]; iv admin 5 mg/kg) | clearance ([2]; iv admin 5 mg/kg, read-out: CLtotal) | bioavailability ([2]; po 10 mg/kg vs iv 5 mg/kg) | AUC(0-inf) ([2]; po admin 10 mg/kg) | Cmax ([2]; po admin 10 mg/kg) | Tmax ([2]; po admin 10 mg/kg) | SMILES | effect on respiratory burst induced by fMLP (human neutrophils [1]; fMLP-induced) | inhibition of propionate-induced respiratory burst (human neutrophils [1]; propionate (C3) 1 mM) | effect on neutrophil migration induced by fMLP (human neutrophils [3]; fMLP-induced) | inhibition of propionate-induced neutrophil migration (human neutrophils [3]; propionate (C3) 1 mM) |
| --- | --- | --- | --- | --- | --- | --- | --- | --- | --- | --- | --- | --- | --- |
| 46.8 nM |  |  |  |  |  |  |  |  | O=C(O)C[C@H](Cc1ccc(C(F)(F)F)cc1)NC(=O)Cc1cccc(Cl)c1 [Compound 3, reference compound] |  |  |  |  |
| 5.75 nM | 7350 ng·h/mL | 0.4 L/kg | 24 min | 11 mL/min/kg | 44% | 6480 ng·h/mL | 6240 ng/mL | 30 min | COc1cccc(CC(=O)N[C@@H](Cc2ccc(C(F)(F)F)cc2)Cc2nnn[nH]2)c1 [Compound 16l, (S)-N-(1-(1H-Tetrazol-5-yl)-3-(4-(trifluoromethyl)phenyl)propan-2-yl)-2-(3-methoxyphenyl)acetamide] | did not exhibit any effect | completely inhibit; also recorded: full inhibition; also recorded: complete inhibition | did not exhibit any effect | completely inhibit; also recorded: fully inhibit migration; also recorded: complete inhibition |
